Common to all, as to assay type: in vivo
The test system of one test is corn (Zea mays). Kind of test: Test G Pre-Emergence Protocol. To be noted: Zea mays, pre-emergence, 312 h, evaluated after 13 days; for plant injury at 15.625 g/ha: 15.625 g ai/ha; for plant injury at 15.625 g/ha / plant injury at 250 g/ha: read-out: Corn damage rating (100=total damage to plant; 0=no damage to plant); for plant injury at 62.5 g/ha: 62.5 g ai/ha, 100=total damage to plant, 0=no damage to plant, read-out: plant damage rating, Corn; for plant injury at 250 g/ha: 250 g ai/ha. As to the method:
(§1) Seeds of corn (Zea mays), giant foxtail (Setaria faberi), barnyardgrass (Echinochloa crus-galli), ivy-leaved morning glory (Ipomoea hederacea), redroot pigweed (Amaranthus retroflexus) and velvetleaf (Abutilon theophrasti) were sown in standard soil in pots. After cultivation for one day under controlled conditions in a glasshouse (at 24/16° C., day/night; 14 hours light; 65% humidity), the plants were sprayed with an aqueous spray solution derived from the formulation of the technical active ingredient in acetone/water (50:50) solution containing 0.5% Tween 20 (polyoxyethylene sorbitan monolaurate, CAS RN 9005-64-5) to give a final dose of 15.625, 62.5 or 250 g/ha of test compound.
(§2) The test plants were then grown on under controlled conditions in a glasshouse (at 24/16° C., day/night; 14 hours light; 65% humidity) and watered twice daily. After 13 days the test was evaluated (100=total damage to plant; 0=no damage to plant). A dash (-) means no test result.

Test [1] relates to redroot pigweed (Amaranthus retroflexus). Kind of test: Test G Pre-Emergence Protocol. The note with it: Amaranthus retroflexus, pre-emergence, 312 h, evaluated after 13 days; for pest or weed control at 15.625 g/ha: 15.625 g ai/ha; for pest or weed control at 15.625 g/ha / pest or weed control at 250 g/ha: read-out: Pigweed, Redroot damage rating (100=total damage to plant; 0=no damage to plant); for pest or weed control at 62.5 g/ha: 62.5 g ai/ha, 100=total damage to plant, 0=no damage to plant, read-out: plant damage rating, Pigweed, Redroot; for pest or weed control at 250 g/ha: 250 g ai/ha. Here is the method: as §1, §2

The test system of test [2] is giant foxtail (Setaria faberi). The test is described as follows: Test G Pre-Emergence Protocol. To be noted: Setaria faberi, pre-emergence, 312 h, evaluated after 13 days; for pest or weed control at 15.625 g/ha: 15.625 g ai/ha; for pest or weed control at 15.625 g/ha / pest or weed control at 250 g/ha: read-out: Foxtail, Giant damage rating (100=total damage to plant; 0=no damage to plant); for pest or weed control at 62.5 g/ha: 62.5 g ai/ha, 100=total damage to plant, 0=no damage to plant, read-out: plant damage rating, Foxtail, Giant; for pest or weed control at 250 g/ha: 250 g ai/ha. As to the method: as §1, §2

The test system of test [3] is velvetleaf (Abutilon theophrasti). Kind of test: Test G Pre-Emergence Protocol. To be noted: Abutilon theophrasti, pre-emergence, 312 h, evaluated after 13 days; for pest or weed control at 15.625 g/ha: 15.625 g ai/ha; for pest or weed control at 15.625 g/ha / pest or weed control at 250 g/ha: read-out: Velvetleaf damage rating (100=total damage to plant; 0=no damage to plant); for pest or weed control at 62.5 g/ha: 62.5 g ai/ha, 100=total damage to plant, 0=no damage to plant, read-out: plant damage rating, Velvetleaf; for pest or weed control at 250 g/ha: 250 g ai/ha. As to the method:
as §1, §2

Test [4] has as its system ivy-leaved morning glory (Ipomoea hederacea). Kind of test: Test G Pre-Emergence Protocol. The note with it: Ipomoea, pre-emergence, 312 h, evaluated after 13 days; for pest or weed control at 15.625 g/ha: 15.625 g ai/ha, read-out: Morning-glory, Ivy-leaved damage rating (100=total damage to plant; 0=no damage to plant); for pest or weed control at 62.5 g/ha: 62.5 g ai/ha, 100=total damage to plant, 0=no damage to plant, read-out: plant damage rating, Morningglory, Ivy-leaved; for pest or weed control at 250 g/ha: 250 g ai/ha, read-out: Morningglory, Ivy-leaved damage rating (100=total damage to plant; 0=no damage to plant). As to the method:
as §1, §2

Test [5] concerns barnyardgrass (Echinochloa crus-galli). The test is described as follows: Test G Pre-Emergence Protocol. To be noted: Echinochloa crus-galli, pre-emergence, 312 h, evaluated after 13 days; for pest or weed control at 15.625 g/ha: 15.625 g ai/ha, read-out: Barnyard grass damage rating (100=total damage to plant; 0=no damage to plant); for pest or weed control at 62.5 g/ha: 62.5 g ai/ha, 100=total damage to plant, 0=no damage to plant, read-out: plant damage rating, Barnyardgrass; for pest or weed control at 250 g/ha: 250 g ai/ha, read-out: Barnyardgrass damage rating (100=total damage to plant; 0=no damage to plant). Here is the method:
as §1, §2

The test system of test [6] is ivy-leaved morning glory (Ipomoea hederacea). The test is described as follows: Test G Post-Emergence Protocol. The note with it: Ipomoea, post-emergence, 312 h; for pest or weed control at 15.625 g/ha: 15.625 g ai/ha, evaluated after 13 days (100=total damage to plant; 0=no damage to plant), read-out: Morningglory, Ivy-leaved damage rating; for pest or weed control at 62.5 g/ha: 62.5 g ai/ha, read-out: Morningglory, Ivy-leaved damage rating (100=total damage to plant; 0=no damage to plant); for pest or weed control at 62.5 g/ha / pest or weed control at 250 g/ha: evaluated after 13 days; for pest or weed control at 250 g/ha: 250 g ai/ha, read-out: damage to plant, Morningglory, Ivy-leaved (100=total damage to plant; 0=no damage to plant). As to the method: as §1, with “8 days” for “one day”
as §2

Another test has as its system rice (Oryza sativa). Kind of test: Test C flooded paddy test. The note with it: Flood; for Plant response rating (scale of 0 to 100), Rice: 0 is no effect, 100 is complete control; for Plant response rating, Rice: scale 0 to 100 (0 no effect, 100 complete control), 13 to 15 d. In outline: (§3)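 Test compounds were dosed straight into the flood water of pots holding 2-leaf-stage plants, with water kept 3 cm above the soil. Greenhouse plants were scored visually against controls after 13 to 15 d, from 0 (no effect) to 100 (complete control).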

Test [7] deals with sedge, umbrella (small-flower umbrella sedge, Cyperus difformis). The test is described as follows: Test C flooded paddy test. To be noted: Flood; for Plant response rating (scale of 0 to 100), Sedge, Umbrella: 0 is no effect, 100 is complete control; for Plant response rating, Sedge, Umbrella: scale 0 to 100 (0 no effect, 100 complete control), 13 to 15 d. The method in brief: as §3

In test [8] the test system is barnyardgrass (Echinochloa crus-galli). The test is described as follows: Test C flooded paddy test. The note with it: Flood; for Plant response rating (scale of 0 to 100), Barnyardgrass: 0 is no effect, 100 is complete control; for Plant response rating, Barnyardgrass: scale 0 to 100 (0 no effect, 100 complete control), 13 to 15 d. The method in brief: as §3

As for `CN1C[C@H](c2ccc(Cl)cc2)[C@@H](C(=O)Nc2cccc(F)n2)C1=O` [Compound 1399], the plant injury at 15.625 g/ha in the test with corn (Zea mays) was 0%. For the same compound, the plant injury at 62.5 g/ha in the test with corn (Zea mays) was determined as 10%. In addition, the plant injury at 250 g/ha with corn (Zea mays) amounted to 60%. For the same compound, the pest or weed control at 15.625 g/ha was determined as 0% in test [1]; 90% in test [2]; 0% in [3]; 0% in test [4]; 0% in [5]; 10% in [6]. The pest or weed control at 62.5 g/ha in test [1] was found to be 30%; in test [2], 90%; in test [3] it was 40%; in [4] it was 50%; in test [5], 90%; in test [6] it was 30%. Moreover, the pest or weed control at 250 g/ha came to 80% in test [1]; 90% in test [2]; 70% in test [3]; 60% in [4]; 90% in test [5]; 70% in test [6].

With `CN1CC(c2ccc(F)c(C(F)(F)F)c2)C(C(=O)Nc2ccccc2S(C)(=O)=O)C1=O` (stereo not drawn) [Compound 612], the “Plant response rating (scale of 0 to 100), Rice” value with rice (Oryza sativa) (31 g ai/ha) worked out at 0; with rice (Oryza sativa) (62 g ai/ha), 0; with rice (Oryza sativa) (125 g ai/ha), 0; with rice (Oryza sativa) (250 g ai/ha), 15. Besides, the “Plant response rating (scale of 0 to 100), Sedge, Umbrella” value in test [7] (31 g ai/ha), in test [7] (62 g ai/ha), in [7] (125 g ai/ha) and in test [7] (250 g ai/ha) was 0 in each case. Moreover, the “Plant response rating (scale of 0 to 100), Barnyardgrass” value turned out to be 0 in test [8] (31 g ai/ha), 0 in [8] (62 g ai/ha), 0 in test [8] (125 g ai/ha) and 55 in [8] (250 g ai/ha).

For the compound `Cc1ccc(C2CN(C)C(=O)C2C(=O)Nc2ccccc2F)cc1F` (stereo not drawn) [Compound 465], in the test on rice (Oryza sativa) (16 g ai/ha), the “Plant response rating, Rice” value is 0. The “Plant response rating (scale of 0 to 100), Rice” value in the test with rice (Oryza sativa) (31 g ai/ha), in the test with rice (Oryza sativa) (62 g ai/ha) and with rice (Oryza sativa) (125 g ai/ha) was 0 each time. Moreover, the “Plant response rating, Sedge, Umbrella” value in test [7] (16 g ai/ha) came out at 0. For the same compound, the “Plant response rating (scale of 0 to 100), Sedge, Umbrella” value in [7] (31 g ai/ha), in [7] (62 g ai/ha) and in test [7] (125 g ai/ha) was 0 throughout. For the same compound, the “Plant response rating, Barnyardgrass” value in test [8] (16 g ai/ha) is on record as 0. Besides, the “Plant response rating (scale of 0 to 100), Barnyardgrass” value in test [8] (31 g ai/ha) was determined as 25; in test [8] (62 g ai/ha), 45; in test [8] (125 g ai/ha), 70.

Turning to `CN1CC(c2cc(F)cc(F)c2)C(C(=O)Nc2cccc(F)c2F)C1=O` (stereo not drawn) [Compound 644], the “Plant response rating, Rice” value in the test on rice (Oryza sativa) (31 g ai/ha) is recorded as 0. The “Plant response rating (scale of 0 to 100), Rice” value in the test with rice (Oryza sativa) (62 g ai/ha), with rice (Oryza sativa) (125 g ai/ha) and in the test with rice (Oryza sativa) (250 g ai/ha) was 0 throughout. Also, the “Plant response rating, Sedge, Umbrella” value in test [7] (31 g ai/ha) was 0. Moreover, the “Plant response rating (scale of 0 to 100), Sedge, Umbrella” value in test [7] (62 g ai/ha), in [7] (125 g ai/ha) and in test [7] (250 g ai/ha) was 0 each time. In addition, in test [8] (31 g ai/ha), the “Plant response rating, Barnyardgrass” value is reported as 40. In addition, the results for the “Plant response rating (scale of 0 to 100), Barnyardgrass” value in test [8] (62 g ai/ha), in test [8] (125 g ai/ha) and in test [8] (250 g ai/ha) were 60, 75 and 90, respectively.

In the case of `CN1C[C@H](c2ccc(C(F)(F)F)cc2)[C@@H](C(=O)Nc2cccnc2F)C1=O` [Compound 1396], in the test on corn (Zea mays), the plant injury at 15.625 g/ha is 70%. For the same compound, the plant injury at 62.5 g/ha in the test on corn (Zea mays) worked out at 80%. Besides, the plant injury at 250 g/ha with corn (Zea mays) was found to be 80%. The pest or weed control at 15.625 g/ha is 80% in [1]; 90% in test [2]; 40% in test [3]; 0% in test [4]; 80% in [5]; 40% in test [6]. For the same compound, the pest or weed control at 62.5 g/ha in test [1] amounted to 80%; in [2] it was 90%; in test [3], 70%; in test [4], 70%; in test [5], 90%; in test [6], 60%. In addition, the pest or weed control at 250 g/ha in test [1] amounted to 80%; in test [2] it was 100%; in test [3], 80%; in [4], 70%; in test [5] it was 90%; in test [6], 60%.
